Experimental data from US9061041B2, “2′-substituted nucleoside derivatives and methods of use thereof for the treatment of viral diseases” (Merck Sharp & Dohme Corp., priority 2011, dated 2015).
Like-named read-outs stand apart in the source and are kept apart here.

How the values were obtained:
[1] = tested on: replicon cells (1b-Con1); assay: Replicon activity assay (1b-Con1); assay type: cell-based, HCV; details: Hepatitis C virus, 72 h, three days post-dosing
[2] = tested on: replicon cells (1b-Con1); assay: Cytotoxicity MTS assay in replicon cells; details: CC50, MTS assay, three days post dosing
[3] = tested on: HCV replicon (1b) cells; assay: Cell-based HCV replicon assay
Procedure: To measure cell-based anti-HCV activity of selected compounds of the present invention, replicon cells were seeded at 5000 cells/well in 96-well collagen I-coated Nunc plates in the presence of the test compound. […]. Cells were harvested on day 3 by the addition of 1× cell lysis buffer (Ambion cat #8721). The replicon RNA level was measured using real time PCR (Taqman assay). The amplicon was located in 5B. The PCR primers were: 5B.2F, […] (SEQ ID. NO. 1); 5B.2R, […] (SEQ ID. NO. 2); the probe sequence was FAM-labeled […] (SEQ ID. NO. 3). GAPDH RNA was used as endogenous control and was amplified in the same reaction as NS5B (multiplex PCR) using primers and VIC-labeled probe recommended by the manufacturer (PE Applied Biosystem). The real-time RT-PCR reactions were run on ABI PRISM 7900HT Sequence Detection System using the following program: 48° C. for 30 minutes, 95° C. for 10 minutes, 40 cycles of 95° C. for 15 sec, 60° C. for 1 minute. The ΔCT values (CT5B-CTGAPDH) were plotted against the concentration of test compound and fitted to the sigmoid dose-response model using XLfit4 (MDL). […]; Alternatively, to quantitate the absolute amount of replicon RNA, a standard curve was established by including serially diluted T7 transcripts of replicon RNA in the Taqman assay. All Taqman reagents were from PE Applied Biosystems. Such an assay procedure was described in detail in e.g. Malcolm et al., Antimicrobial Agents and Chemotherapy 50: 1013-1020 (2006).

[4] = replicon RNA level by real time PCR, cells harvested on day 3
[5] = Hepatitis C virus, 72 h, replicon RNA level by real time PCR, cells harvested on day 3

Row | Structure (SMILES) | EC50 [1] [nM] | Cytotoxicity [2] [µM] | EC50 [3, 4] [µM] | other results
1 | CCOc1nc(N)nc2c1ncn2[C@@H]1O[C@H](COP(=O)(N[C@@H](C)C(=O)OC)Oc2ccccc2)[C@@H](O)[C@@]1(C)SC (some centres unmarked) [drawing 242] | 38000 | >100 | – | –
2 | CC(C)OC(=O)[C@H](C)NP(=O)(OC[C@H]1O[C@@H](n2ccc(N)nc2=O)[C@](C)(N)C1O)Oc1ccccc1 (some centres unmarked) | 5500 | >100 | – | –
3 | C[C@H](NP(=O)(OC[C@H]1O[C@@H](n2ccc(N)nc2=O)[C@](C)(N)C1O)Oc1ccccc1)C(=O)OCC(C)(C)C (some centres unmarked) | 4400 | >100 | – | –
4 | C#C[C@]1(C)[C@H](O)[C@@H](COP(=O)(N[C@@H](C)C(=O)OC(C)C)Oc2ccccc2)O[C@H]1n1ccc(=O)[nH]c1=O (some centres unmarked) | 2300 | >100 | – | –
5 | C[C@@]1(N)[C@@H]2OP(=O)(OC3CCC3)OC[C@H]2O[C@H]1n1ccc(N)nc1=O (some centres unmarked) [drawing 247] | 2800 | >50 | – | –
6 | CCOC(=O)[C@H](C)NP(=O)(OC[C@H]1O[C@@H](n2cnc3c(OC)nc(N)nc32)[C@](C)(N)[C@@H]1O)Oc1ccccc1 (some centres unmarked) [drawing 248] | 100 | >100 | – | –
7 | CCOc1nc(N)nc2c1ncn2[C@@H]1O[C@H](COP(=O)(N[C@@H](C)C(=O)OC)Oc2ccccc2)C(O)[C@@]1(C)N (some centres unmarked) [Compound 20] | – | – | 2.5 | –
8 | CCOc1nc(N)nc2c1ncn2[C@@H]1O[C@H](COP(=O)(N[C@@H](C)C(=O)OC)Oc2ccccc2)C(O)[C@@]1(C)N (some centres unmarked) [drawing 243] | 2500 | >100 | – | –
9 | C[C@@]1(N)[C@@H]2OP(=O)(OC3CCC3)OC[C@H]2O[C@H]1n1ccc(N)nc1=O (some centres unmarked) [Compound 79] | – | – | – | EC50 [3, 5]: 2.8 µM
10 | COc1nc(N)nc2c1ncn2[C@@H]1O[C@H](COP(=O)(N[C@@H](C)C(=O)OCC(C)(C)C)Oc2ccccc2)C(O)[C@@]1(C)N (single isomer, unassigned) [Compound 53] | – | – | 2.7 | –
11 | C[C@H](NP(=O)(OC[C@H]1O[C@@H](n2ccc(N)nc2=O)[C@](C)(N)C1O)Oc1ccccc1)C(=O)OCC(C)(C)C (single isomer, unassigned) [Compound 58] | – | – | 4.4 | –
12 | C[C@H](NP(=O)(OC[C@H]1O[C@@H](n2ccc(=O)[nH]c2=O)[C@](C)(N)C1O)Oc1ccccc1)C(=O)OCC(C)(C)C (some centres unmarked) | 700 | >100 | – | –
13 | C[C@@]1(C(N)=O)[C@H](O)[C@@H](CO)O[C@H]1n1ccc(N)nc1=O [Compound 85] | – | – | 45 | –
14 | CC(C)OC(=O)[C@H](C)NP(=O)(OC[C@H]1O[C@@H](n2ccc(=O)[nH]c2=O)[C@](C)(N)[C@@H]1O)Oc1ccccc1 (some centres unmarked) [drawing 239] | 3100 | >100 | – | –
15 | COc1nc(N)nc2c1ncn2[C@@H]1O[C@H](CO)[C@@H](O)[C@@]1(C)N [Compound 15] | – | – | – | EC50 [3, 5]: > 100 µM
16 | COc1nc(N)nc2c1ncn2[C@@H]1O[C@H](COP(=O)(N[C@@H](C)C(=O)OCC(C)(C)C)Oc2ccccc2)C(O)[C@@]1(C)N (single isomer, unassigned) [Compound 52] | – | – | 0.9 | –
17 | C[C@@]1(n2ccnn2)[C@H](O)[C@@H](CO)O[C@H]1n1ccc(N)nc1=O [Compound 4] | – | – | – | EC50 [3]: > 100 µM
18 | C[C@H](NP(=O)(OC[C@H]1O[C@@H](n2ccc(=O)[nH]c2=O)[C@](C)(N)C1O)Oc1ccccc1)C(=O)OCC(C)(C)C (single isomer, unassigned) [Compound 57] | – | – | 9.9 | –
19 | COc1nc(N)nc2c1ncn2[C@@H]1O[C@@H]2COP(=O)(OC(C)C)O[C@H]2[C@@]1(C)N (some centres unmarked) [Compound 98] | – | – | 43 | –
20 | COC(=O)[C@H](C)NP(=O)(OC[C@H]1O[C@@H](n2ccc(N)nc2=O)[C@](C)(SC)[C@@H]1O)Oc1ccccc1 (some centres unmarked) [Compound 7] | – | – | 29 | –
21 | CCOc1nc(N)nc2c1ncn2[C@@H]1O[C@H](COP(=O)(N[C@@H](C)C(=O)OCC(C)(C)C)Oc2ccccc2)C(O)[C@@]1(C)N (single isomer, unassigned) [Compound 55] | – | – | 3.1 | –
22 | C[C@@]1(Cl)[C@H](O)[C@@H](CO)O[C@H]1n1ccc(N)nc1=O [Compound 6] | – | – | – | EC50 [3]: 10 µM
23 | C[C@@]1(N)[C@H](O)[C@@H](CO)O[C@H]1n1ccc(=O)[nH]c1=O [Compound 16] | – | – | – | EC50 [3, 5]: > 100 µM
